# Measured values reported in ChEMBL document CHEMBL1201862, “PubChem BioAssay data set” (2004).
# Active and inactive are the calls of the source.
# Experiments:
# [1] = target: T1, Alkaline phosphatase, tissue-nonspecific isozyme (Homo sapiens, UniProt P05186)
# T1 sequence (P05186 whole entry): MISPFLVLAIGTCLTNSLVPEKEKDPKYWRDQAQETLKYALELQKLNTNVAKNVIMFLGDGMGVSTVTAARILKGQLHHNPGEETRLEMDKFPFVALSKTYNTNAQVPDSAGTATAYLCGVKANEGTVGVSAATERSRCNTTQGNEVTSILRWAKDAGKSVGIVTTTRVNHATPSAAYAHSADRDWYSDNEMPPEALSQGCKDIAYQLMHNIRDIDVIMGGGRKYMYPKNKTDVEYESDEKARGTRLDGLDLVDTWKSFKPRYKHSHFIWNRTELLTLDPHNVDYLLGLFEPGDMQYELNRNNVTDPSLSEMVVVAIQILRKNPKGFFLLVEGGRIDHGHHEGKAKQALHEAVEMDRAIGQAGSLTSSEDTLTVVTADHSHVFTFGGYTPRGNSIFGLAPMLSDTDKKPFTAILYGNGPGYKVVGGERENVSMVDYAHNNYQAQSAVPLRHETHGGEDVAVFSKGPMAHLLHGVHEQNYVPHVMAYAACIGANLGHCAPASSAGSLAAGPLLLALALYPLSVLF
# [2] = target: Voltage-dependent T-type calcium channel subunit alpha-1H (Homo sapiens, UniProt O95180); type: functional;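 also: channel activity triggered by adding a high calcium stimulation buffer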
# [3] = target: Acyl-homoserine lactone acylase PvdQ (Pseudomonas aeruginosa (strain LESB58), UniProt Q9I194); assay: PvdQ acylase enzyme activity blockers – biochemical, fluorescence, plate reader and imaging, cherry-picks, dose response (AID 493231)
# X-box-binding protein 1 = X-box-binding protein 1 (Homo sapiens, UniProt P17861); type: functional, Cricetulus griseus;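 also: confirmatory dose-response counter-screen serving a CHOP assay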
# [4] = viability of HCT116 lacking mutant beta-catenin – cell-based, human colon tumor, dose response (AID 1045); type: functional;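 also: HCT116 colon tumor cells with beta catenin knocked out; cells exposed to compound for 60 hours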
# [5] = viability of PTEN-deleted HCT116 cells – cell-based, HCT116 PTEN knockout, dose response (AID 1047); type: functional;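 also: HCT116 colon tumor cells with PTEN knocked out; cells exposed to compound for 60 hours before readout; potency for loss of cell viability measured by luminescence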
# Insulin-degrading enzyme = target: T2, Insulin-degrading enzyme (Homo sapiens, UniProt P14735); assay: Dose Response: Fluorescence polarization-based cell-based high throughput dose response assay for inhibitors of insulin-degrading enzyme (IDE). [Related pubchem assays: 434962 (Primary screen (IDE inhibitors in singlicate)), 449730 (Counterscreen (Cytotoxicity in triplicate)), 435028 (Confirmation (IDE inhibitors in triplicate)), 434984 (Summary …; type: functional
# T2 sequence (P14735 whole entry): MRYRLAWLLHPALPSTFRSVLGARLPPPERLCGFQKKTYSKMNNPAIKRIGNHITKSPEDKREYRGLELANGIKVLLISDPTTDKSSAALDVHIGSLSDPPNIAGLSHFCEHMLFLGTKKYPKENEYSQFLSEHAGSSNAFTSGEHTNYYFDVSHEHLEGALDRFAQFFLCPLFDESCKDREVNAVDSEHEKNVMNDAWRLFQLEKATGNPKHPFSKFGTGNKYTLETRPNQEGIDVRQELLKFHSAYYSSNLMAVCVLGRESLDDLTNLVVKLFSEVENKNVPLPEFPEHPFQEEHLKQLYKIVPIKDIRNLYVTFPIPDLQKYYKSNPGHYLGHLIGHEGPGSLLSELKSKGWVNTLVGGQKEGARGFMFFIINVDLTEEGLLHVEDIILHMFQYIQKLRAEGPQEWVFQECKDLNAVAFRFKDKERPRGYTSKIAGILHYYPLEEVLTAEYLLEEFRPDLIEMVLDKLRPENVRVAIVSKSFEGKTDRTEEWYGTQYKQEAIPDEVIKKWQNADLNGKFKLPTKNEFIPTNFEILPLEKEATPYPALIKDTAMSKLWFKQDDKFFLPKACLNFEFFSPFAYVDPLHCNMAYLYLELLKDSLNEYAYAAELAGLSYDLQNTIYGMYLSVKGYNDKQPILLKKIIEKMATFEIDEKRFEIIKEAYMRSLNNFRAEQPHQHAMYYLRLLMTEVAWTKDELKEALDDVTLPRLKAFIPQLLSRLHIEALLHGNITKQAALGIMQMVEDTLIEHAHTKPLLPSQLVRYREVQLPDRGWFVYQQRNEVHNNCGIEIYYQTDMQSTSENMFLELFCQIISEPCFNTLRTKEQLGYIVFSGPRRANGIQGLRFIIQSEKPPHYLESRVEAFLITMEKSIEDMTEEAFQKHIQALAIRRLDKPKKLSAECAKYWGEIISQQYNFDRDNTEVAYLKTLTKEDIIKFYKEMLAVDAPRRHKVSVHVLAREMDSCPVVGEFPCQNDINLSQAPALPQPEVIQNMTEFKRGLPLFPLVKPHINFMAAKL
# [6] = Counterscreen for IDE inhibitors: Luminescence-based cell-based high throughput dose response assay to identify compounds that are cytotoxic to HEK cells. [Related pubchem assays: 434962 (Primary screen (IDE inhibitors in singlicate)), 449730 (Counterscreen (Cytotoxicity in triplicate)), 435028 (Confirmation (IDE inhibitors in triplicate)) …; type: functional; conditions: HEK293
# [7] = target: T3, Zinc finger protein mex-5 (Caenorhabditis elegans, UniProt Q9XUB2); assay: potency of MEX-5 RNA-binding blockers – biochemical, C. elegans, fluorescence polarization, dose response (AID 1960)
# T3 sequence (Q9XUB2 whole entry): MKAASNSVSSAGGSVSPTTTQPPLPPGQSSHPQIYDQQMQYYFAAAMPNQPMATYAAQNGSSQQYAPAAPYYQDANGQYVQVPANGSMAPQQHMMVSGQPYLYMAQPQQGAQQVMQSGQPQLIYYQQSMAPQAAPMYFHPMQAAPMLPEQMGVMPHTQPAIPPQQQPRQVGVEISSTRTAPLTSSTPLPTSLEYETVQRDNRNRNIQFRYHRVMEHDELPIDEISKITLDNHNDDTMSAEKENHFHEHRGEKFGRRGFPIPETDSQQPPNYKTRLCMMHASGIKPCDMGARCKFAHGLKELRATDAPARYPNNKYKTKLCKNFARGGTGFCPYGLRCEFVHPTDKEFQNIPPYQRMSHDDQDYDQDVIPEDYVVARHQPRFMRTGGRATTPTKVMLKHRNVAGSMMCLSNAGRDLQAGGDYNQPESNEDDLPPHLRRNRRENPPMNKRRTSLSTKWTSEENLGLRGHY
# [8] = target: T4, RNA-binding protein pos-1 (Caenorhabditis elegans, UniProt G5EF15); assay: disruptors of C. elegans POS-1 RNA interaction – biochemical, fluorescence polarization, dose response (AID 1964);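 also: purified POS-1 fused to maltose binding protein made in E. coli; potency of compounds blocking POS-1 binding to fluorescent RNA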
# T4 sequence (G5EF15 whole entry): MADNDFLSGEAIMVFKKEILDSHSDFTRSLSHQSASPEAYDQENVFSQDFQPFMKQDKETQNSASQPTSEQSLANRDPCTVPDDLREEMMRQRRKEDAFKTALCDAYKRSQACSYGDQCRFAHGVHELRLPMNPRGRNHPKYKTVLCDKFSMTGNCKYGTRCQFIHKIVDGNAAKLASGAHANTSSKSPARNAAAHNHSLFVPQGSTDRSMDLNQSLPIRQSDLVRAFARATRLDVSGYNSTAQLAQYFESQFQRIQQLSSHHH
# [9] = A549 cell cytotoxicity, dose response, cytotoxicity control, plate reader, cherry-pick, antagonist series (AID 743412); type: functional, cell-based
# [10] = target: T5, Microphthalmia-associated transcription factor (Homo sapiens, UniProt O75030); assay: reducers of TRPM1 reporter luminescence, concentration series – cell-based, SK-MEL-5, cherry-picked, set 3, MITF inhibitor project, dose response (AID 493073); type: functional;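 also: SK-MEL-5 melanoma cells with luciferase driven by the MITF target TRPM1 promoter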
# T5 sequence (O75030 whole entry): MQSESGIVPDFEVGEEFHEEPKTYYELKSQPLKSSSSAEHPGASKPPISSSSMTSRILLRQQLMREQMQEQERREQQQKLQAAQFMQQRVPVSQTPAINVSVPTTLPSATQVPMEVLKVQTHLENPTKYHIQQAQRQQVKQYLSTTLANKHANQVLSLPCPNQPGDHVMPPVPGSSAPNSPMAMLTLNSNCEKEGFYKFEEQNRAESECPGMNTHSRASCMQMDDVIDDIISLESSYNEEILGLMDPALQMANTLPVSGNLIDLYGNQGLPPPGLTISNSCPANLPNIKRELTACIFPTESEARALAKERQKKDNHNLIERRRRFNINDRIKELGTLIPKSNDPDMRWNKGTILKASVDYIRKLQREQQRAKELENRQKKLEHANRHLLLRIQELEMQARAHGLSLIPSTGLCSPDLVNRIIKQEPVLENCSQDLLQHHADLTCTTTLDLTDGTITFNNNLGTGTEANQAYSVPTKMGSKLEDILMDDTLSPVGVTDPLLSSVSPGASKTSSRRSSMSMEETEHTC
# [11] = toxicity toward HepG2 liver cells – cell-based, plate reader, cherry-pick, antagonist series, cytotoxicity control, dose response (AID 743416); type: functional
# [12] = viability loss in HEK293 cells – cell-based, plate reader, cherry-picked samples, cytotoxicity control, dose response (AID 743446); type: functional
# [13] = blockade of melanocortin 4 receptor signaling – cell-based, plate reader, cherry pick, counter-screen for LGR2 antagonist project, dose response (AID 743444); type: functional;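 also: transfected HEK 293 cells stimulated with alpha-MSH peptide; potency of inhibitors of the alpha-MSH evoked signal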
# [14] = blockers of bursicon-stimulated LGR2 cAMP reporter – cell-based, HEK293, CRE-luciferase reporter, cherry pick, set 2, dose response (AID 743343); type: functional;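 also: transfected cells were stimulated with diluted bursicon conditioned medium after compound addition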
# [15] = target: T6, Voltage-gated N-type calcium channel alpha-1B subunit/Amyloid beta A4 precursor protein-binding family A member 1 (Homo sapiens, UniProt Q00975+Q02410); assay: disruptors of Mint-PDZ/N-type channel peptide interaction – biochemical, HTRF, set 2, SAR follow-up (AID 434980); type: functional
# [16] = target: T6, Voltage-gated N-type calcium channel alpha-1B subunit/Amyloid beta A4 precursor protein-binding family A member 1; assay: disruptors of Mint-PDZ/N-type channel peptide interaction – biochemical, HTRF, SAR follow-up (AID 2489); type: functional
# Beta-galactosidase = Beta-galactosidase (Escherichia coli, UniProt Q8VNN2); assay: detection-enzyme interference by beta-gal modulators – biochemical, E. coli enzyme, set 3, artefact control for CCR6 antagonist project, dose response (AID 504712); type: functional
# [17] = target: C-C chemokine receptor type 6 (Homo sapiens, UniProt P51684); assay: antagonism of CCR6 beta-arrestin recruitment – cell-based, luminescent beta-arrestin readout, dose response (AID 504728); type: functional
# [18] = target: T7, Mannose-6-phosphate isomerase (Homo sapiens, UniProt P34949); assay: MPI inhibition at elevated mannose 6-phosphate – biochemical, fluorescence intensity, high mannose 6-phosphate, primary screen (AID 1220)
# T7 sequence (P34949 whole entry): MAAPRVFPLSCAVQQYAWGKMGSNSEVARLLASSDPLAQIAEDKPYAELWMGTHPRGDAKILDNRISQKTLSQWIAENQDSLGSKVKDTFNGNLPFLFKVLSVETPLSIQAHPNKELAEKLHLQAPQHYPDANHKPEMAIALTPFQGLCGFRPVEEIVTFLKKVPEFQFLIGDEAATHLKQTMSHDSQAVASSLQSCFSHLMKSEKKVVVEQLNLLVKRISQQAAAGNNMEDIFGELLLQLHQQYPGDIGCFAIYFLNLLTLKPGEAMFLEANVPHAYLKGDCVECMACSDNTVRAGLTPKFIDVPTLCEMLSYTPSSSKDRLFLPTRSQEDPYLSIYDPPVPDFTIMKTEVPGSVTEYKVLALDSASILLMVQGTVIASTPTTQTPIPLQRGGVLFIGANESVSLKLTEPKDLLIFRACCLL
# [19] = target: T8, Oxysterols receptor LXR-beta (Homo sapiens, UniProt P55055); assay: LXR agonists, Gal4 luciferase reporter, dose response, counter-screen for ssDAF-12 agonist project, cell-based, luminescence, HEK293, S. stercoralis campaign (AID 720737); type: functional; conditions: read-out: IC50 (the source's name)
# T8 sequence (P55055 whole entry): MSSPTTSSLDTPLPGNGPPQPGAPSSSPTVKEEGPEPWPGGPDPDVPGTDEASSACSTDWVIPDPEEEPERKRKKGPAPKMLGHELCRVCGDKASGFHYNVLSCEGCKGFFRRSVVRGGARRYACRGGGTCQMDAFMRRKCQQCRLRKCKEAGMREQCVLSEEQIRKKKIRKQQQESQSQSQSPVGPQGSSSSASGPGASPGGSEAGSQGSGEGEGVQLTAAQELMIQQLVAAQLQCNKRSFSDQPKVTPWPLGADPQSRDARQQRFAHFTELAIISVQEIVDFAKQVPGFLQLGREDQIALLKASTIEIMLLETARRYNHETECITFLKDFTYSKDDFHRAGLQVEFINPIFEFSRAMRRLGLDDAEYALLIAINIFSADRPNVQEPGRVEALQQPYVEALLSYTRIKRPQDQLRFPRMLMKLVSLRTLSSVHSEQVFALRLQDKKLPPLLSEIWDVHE
# [20] = target: T8, Oxysterols receptor LXR-beta; type: functional, cell-based
# [21] = Luminescence-based cell-based high throughput dose response assay to identify activators of the DAF-12 from the parasite S. stercoralis (ssDAF-12).; type: functional
# Beta-galactosidase, sequence (Q8VNN2 whole entry): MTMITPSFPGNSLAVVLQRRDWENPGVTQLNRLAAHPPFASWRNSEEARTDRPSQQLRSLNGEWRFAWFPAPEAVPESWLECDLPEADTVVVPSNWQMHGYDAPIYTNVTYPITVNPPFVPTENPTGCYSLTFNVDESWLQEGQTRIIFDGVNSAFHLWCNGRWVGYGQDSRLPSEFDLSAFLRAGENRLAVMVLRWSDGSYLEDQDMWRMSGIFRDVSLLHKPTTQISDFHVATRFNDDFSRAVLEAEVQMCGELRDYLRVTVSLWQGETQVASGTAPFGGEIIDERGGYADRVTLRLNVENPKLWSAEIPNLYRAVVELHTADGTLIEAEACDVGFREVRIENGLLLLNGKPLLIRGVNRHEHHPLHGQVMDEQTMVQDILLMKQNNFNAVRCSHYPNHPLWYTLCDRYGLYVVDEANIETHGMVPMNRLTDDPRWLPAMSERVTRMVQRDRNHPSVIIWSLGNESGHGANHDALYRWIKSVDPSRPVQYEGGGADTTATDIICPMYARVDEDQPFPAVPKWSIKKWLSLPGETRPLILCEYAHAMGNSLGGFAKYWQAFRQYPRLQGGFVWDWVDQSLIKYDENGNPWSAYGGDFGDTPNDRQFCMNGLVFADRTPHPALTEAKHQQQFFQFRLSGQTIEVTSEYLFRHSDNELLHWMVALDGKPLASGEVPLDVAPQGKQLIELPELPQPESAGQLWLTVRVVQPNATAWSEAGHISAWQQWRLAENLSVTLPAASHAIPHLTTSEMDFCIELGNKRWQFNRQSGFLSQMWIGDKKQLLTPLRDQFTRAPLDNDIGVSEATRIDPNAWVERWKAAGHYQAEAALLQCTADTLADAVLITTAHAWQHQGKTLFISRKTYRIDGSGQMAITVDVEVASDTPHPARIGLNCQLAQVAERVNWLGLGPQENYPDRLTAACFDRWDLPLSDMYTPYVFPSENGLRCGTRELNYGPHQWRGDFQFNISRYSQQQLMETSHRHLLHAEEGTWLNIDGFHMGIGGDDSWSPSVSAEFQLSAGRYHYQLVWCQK
# T6 sequence (Q00975 whole entry): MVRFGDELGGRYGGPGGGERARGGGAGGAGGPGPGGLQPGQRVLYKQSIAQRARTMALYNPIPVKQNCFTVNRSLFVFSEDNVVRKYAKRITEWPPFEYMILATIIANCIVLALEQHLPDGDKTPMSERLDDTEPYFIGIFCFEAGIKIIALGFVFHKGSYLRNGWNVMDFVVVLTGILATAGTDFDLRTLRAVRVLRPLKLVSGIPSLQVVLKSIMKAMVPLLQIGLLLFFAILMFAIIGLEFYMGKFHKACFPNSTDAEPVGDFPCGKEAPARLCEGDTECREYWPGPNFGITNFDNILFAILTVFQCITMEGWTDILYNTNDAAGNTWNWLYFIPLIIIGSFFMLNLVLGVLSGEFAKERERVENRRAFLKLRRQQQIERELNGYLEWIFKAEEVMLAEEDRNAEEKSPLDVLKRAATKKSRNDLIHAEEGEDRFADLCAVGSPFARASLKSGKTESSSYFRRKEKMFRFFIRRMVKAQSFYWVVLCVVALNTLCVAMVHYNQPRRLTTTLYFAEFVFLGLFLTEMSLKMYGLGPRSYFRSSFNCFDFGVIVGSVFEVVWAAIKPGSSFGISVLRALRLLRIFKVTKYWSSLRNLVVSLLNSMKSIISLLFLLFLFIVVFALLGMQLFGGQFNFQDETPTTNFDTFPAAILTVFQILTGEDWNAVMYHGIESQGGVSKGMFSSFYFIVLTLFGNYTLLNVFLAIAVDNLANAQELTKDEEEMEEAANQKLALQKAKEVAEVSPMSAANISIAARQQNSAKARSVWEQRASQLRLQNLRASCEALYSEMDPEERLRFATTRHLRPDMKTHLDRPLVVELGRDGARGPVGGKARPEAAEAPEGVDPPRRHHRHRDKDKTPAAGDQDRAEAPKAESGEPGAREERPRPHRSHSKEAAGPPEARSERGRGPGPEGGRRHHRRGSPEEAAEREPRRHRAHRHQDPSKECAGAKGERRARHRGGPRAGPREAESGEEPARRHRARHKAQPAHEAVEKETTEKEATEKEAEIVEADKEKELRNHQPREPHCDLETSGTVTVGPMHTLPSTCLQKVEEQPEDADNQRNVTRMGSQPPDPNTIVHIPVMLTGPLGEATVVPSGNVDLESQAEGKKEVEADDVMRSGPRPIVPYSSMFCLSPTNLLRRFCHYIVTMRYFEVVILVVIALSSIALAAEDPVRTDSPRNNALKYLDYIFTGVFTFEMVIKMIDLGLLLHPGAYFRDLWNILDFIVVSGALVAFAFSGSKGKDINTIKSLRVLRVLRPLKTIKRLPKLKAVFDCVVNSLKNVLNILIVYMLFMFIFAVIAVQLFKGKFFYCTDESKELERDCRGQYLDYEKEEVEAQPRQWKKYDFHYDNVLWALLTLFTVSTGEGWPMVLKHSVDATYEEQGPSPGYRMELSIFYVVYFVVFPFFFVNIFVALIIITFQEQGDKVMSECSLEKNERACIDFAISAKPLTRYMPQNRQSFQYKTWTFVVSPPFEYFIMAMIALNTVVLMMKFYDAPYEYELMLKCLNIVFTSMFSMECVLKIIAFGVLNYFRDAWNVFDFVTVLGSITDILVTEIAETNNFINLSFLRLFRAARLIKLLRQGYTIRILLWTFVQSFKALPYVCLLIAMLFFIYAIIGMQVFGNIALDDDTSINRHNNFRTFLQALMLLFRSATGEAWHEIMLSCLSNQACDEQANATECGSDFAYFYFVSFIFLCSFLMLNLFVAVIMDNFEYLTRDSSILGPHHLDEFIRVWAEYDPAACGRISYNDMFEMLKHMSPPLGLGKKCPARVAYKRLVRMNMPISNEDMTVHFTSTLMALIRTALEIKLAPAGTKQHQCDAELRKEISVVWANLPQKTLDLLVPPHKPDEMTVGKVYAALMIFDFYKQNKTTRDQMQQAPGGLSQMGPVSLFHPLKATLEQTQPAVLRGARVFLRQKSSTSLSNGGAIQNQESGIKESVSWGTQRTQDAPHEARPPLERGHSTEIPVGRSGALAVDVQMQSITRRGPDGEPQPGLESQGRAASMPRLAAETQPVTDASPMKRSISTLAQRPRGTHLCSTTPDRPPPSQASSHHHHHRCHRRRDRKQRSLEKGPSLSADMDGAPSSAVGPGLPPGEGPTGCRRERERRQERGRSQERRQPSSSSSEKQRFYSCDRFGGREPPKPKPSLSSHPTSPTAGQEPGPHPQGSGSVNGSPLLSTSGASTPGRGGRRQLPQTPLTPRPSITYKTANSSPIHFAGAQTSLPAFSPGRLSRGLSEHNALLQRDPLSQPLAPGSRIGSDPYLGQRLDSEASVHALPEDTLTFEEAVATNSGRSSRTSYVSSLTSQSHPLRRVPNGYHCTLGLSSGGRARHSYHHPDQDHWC
# T6 sequence (Q02410 whole entry): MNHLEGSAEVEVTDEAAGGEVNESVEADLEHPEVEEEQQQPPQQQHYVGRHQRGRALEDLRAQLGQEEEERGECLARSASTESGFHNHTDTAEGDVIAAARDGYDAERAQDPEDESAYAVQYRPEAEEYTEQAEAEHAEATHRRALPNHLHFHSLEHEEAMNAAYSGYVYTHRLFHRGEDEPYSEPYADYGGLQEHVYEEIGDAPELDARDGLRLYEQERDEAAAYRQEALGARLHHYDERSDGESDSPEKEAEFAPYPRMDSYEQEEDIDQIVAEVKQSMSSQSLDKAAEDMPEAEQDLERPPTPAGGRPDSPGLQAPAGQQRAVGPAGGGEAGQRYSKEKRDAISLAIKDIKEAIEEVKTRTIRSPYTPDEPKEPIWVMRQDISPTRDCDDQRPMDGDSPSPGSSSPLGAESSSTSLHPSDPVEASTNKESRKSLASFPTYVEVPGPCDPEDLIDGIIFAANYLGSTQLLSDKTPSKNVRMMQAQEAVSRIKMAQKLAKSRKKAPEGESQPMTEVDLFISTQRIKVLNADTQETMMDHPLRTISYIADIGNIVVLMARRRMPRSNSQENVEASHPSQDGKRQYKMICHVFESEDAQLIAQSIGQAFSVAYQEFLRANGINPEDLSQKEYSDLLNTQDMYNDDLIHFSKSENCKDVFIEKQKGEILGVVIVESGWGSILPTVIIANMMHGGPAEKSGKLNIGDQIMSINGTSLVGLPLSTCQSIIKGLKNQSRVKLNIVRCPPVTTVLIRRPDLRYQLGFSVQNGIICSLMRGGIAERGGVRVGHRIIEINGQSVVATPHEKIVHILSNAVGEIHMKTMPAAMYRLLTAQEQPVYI
# X-box-binding protein 1, sequence (P17861 whole entry): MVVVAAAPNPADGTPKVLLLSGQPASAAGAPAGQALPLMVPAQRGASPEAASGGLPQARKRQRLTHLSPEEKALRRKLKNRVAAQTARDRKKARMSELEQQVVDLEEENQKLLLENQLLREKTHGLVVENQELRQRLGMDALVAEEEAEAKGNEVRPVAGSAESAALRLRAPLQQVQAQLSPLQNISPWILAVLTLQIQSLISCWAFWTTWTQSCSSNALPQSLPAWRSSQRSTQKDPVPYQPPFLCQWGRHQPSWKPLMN
# C-C chemokine receptor type 6, sequence (P51684 whole entry): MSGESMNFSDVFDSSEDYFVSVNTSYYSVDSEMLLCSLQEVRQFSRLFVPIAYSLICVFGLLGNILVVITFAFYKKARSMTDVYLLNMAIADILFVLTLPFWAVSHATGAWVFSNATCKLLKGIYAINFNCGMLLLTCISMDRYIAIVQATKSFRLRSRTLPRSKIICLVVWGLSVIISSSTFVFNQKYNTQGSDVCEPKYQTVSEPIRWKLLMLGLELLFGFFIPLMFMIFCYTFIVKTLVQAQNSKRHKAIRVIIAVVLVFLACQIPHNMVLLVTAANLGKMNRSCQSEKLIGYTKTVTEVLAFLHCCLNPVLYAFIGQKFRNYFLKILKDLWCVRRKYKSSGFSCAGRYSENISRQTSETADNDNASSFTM
smiles,measurement,setting,value
COc1ccc(OCC(=O)Nc2ccc3oc(-c4ccncc4)nc3c2)cc1,EC50,[1],> 100 µM (not active)
CCOc1ccccc1OCCOc1ccccc1OC(C)C,EC50,[2],5.52 µM (active)
Cc1ccc(C(C#N)c2ccc(Cl)nn2)cc1 (stereo not given),AC50,[3],1.6 µM (active)
Cc1cc2c(cc1C)CSC(c1ccccc1O)SC2,Absolute IC50 (XBP1),X-box-binding protein 1,< 10 µM
COc1ccc(C(CCNCc2ccc(F)cc2)c2ccc(F)cc2)cc1 (stereo not given),EC50,[4],7.18 µM (active)
same,EC50,[5],9.32 µM (active)
same,Absolute IC50 (XBP1),X-box-binding protein 1,10 µM
O=C(C1=NN(c2ccccc2)C2C(=O)N(c3ccccc3Cl)C(=O)C12)c1ccccc1 (stereo not given),IC50,Insulin-degrading enzyme,> 6.21 µM (active)
same,IC50,[6],> 55.7 µM (not active)
same,EC50,[7],> 300 µM (inconclusive)
same,EC50,[8],> 300 µM (not active)
CCOc1ccc(NC(=O)c2ccccn2)cc1,AC50,[9],43.4 µM (active)
same,AC50,[10],4.4 µM (active)
same,AC50,[11],> 52 µM (inactive)
same,AC50,[12],> 52 µM (inactive)
same,AC50,[3],> 100 µM (inactive)
same,AC50,[13],1.23 µM (active)
same,AC50,[14],0.999 µM (active)
O=C(NCCCc1ccccc1)c1cc(-c2ccco2)nc2ccccc12,IC50,[15],44.7 µM (active)
same,IC50,[16],> 56.8 µM (inactive)
N#CC(=C1C=CC(=NO)C(Cl)=C1)c1ccc(Cl)cc1,IC50,Beta-galactosidase,> 66.6 µM (inactive)
same,IC50,[17],> 66.6 µM (inactive)
C/C(=N\O)C(=O)C(CN1CCCCC1)CN1CCCCC1,IC50,Beta-galactosidase,> 66.6 µM (inactive)
same,IC50,[18],> 50 µM (not active)
same,IC50,[17],> 66.6 µM (inactive)
Oc1cccc(/C=N/Nc2cccc3cccnc23)c1,EC50,[19],> 67.5 µM (inactive)
same,EC50,[20],> 67.5 µM (inactive)
same,IC50,[21],> 67.5 µM (inactive)
same,EC50,cells,> 67.5 µM (inactive)
same,EC50,[1],> 100 µM (not active)
